Assay results published in paper PMC3320663 (Chemmedchem, 2011).
Several values for one entry are separate records, joined by “and”; a condition that tells them apart may be missing. Equal values may be shown once. Read-outs that look alike come from different tables or passages of the source.

What was measured:
[1] = tested on: bloodstream form T. brucei; experiment: Trypanosomal cell proliferation assay; assay type: cell-based; conditions: Trypanosoma brucei, read-out: Tb EC50
TbTryS = target: T1, TbTryS (Trypanosoma brucei, UniProt Q586P2); experiment: Trypanothione synthetase; assay type: biochemical; conditions: for LE (ligand efficiency): calculated as −0.6×ln(IC50)/(heavy atom count)
T1 sequence (Q586P2 1-627): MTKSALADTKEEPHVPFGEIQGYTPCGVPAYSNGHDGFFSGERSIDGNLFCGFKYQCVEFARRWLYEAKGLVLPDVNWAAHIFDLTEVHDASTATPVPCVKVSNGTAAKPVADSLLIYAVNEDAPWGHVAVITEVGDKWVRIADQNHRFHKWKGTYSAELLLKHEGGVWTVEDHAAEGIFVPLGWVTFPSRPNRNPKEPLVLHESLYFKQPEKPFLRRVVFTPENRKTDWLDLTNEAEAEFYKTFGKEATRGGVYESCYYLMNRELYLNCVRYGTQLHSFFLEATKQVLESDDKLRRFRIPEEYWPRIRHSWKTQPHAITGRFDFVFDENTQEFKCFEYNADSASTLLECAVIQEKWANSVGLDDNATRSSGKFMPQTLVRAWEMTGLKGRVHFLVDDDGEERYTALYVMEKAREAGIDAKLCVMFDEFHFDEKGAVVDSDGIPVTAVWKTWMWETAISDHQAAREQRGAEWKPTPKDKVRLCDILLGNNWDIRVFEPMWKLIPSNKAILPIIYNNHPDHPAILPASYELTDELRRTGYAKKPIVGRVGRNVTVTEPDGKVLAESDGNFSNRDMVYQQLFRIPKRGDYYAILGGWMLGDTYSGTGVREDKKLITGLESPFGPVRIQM

[2] = Human cell counter-screen proliferation assay; assay type: cell-based; conditions: MRC5 fibroblasts
[3] = In vitro metabolic clearance assay; assay type: in vitro ADME, human; conditions: for metabolic stability in words: pooled human liver microsomes; for Cli (intrinsic clearance): pooled human microsomes
[4] = tested on: TbTryS overexpressing (OE) cell line; conditions: read-out: EC50 OE cell line; cited from earlier work
[5] = tested on: trypanothione levels in T. brucei parasites; conditions: of wild-type levels; 2×EC50 for 72 h; cited from earlier work
[6] = tested on: TbTryS single knockout (SKO) cell line; conditions: read-out: EC50 SKO cell line; cited from earlier work
[7] = tested on: wild-type T. brucei cells; conditions: read-out: EC50 wild-type cell line; cited from earlier work
[8] = tested on: bloodstream form T. brucei; conditions: read-out: cell potency, cited from earlier work
[9] = TbTryS IC50, values in running text

CC(C)(C)C(=O)Cn1nc(-c2cccc(F)c2)c2ccccc21 [Compound 71, 1-(3-(3-Fluorophenyl)-1H-indazol-1-yl)-3,3-dimethylbutan-2-one]
EC50 [1]: 7.9 µM | in vitro enzyme potency improved over the best HTS hits (TbTryS): > 10 fold | IC50 (TbTryS; TbTryS IC50): 0.09 µM | LE (ligand efficiency) (TbTryS): 0.42 | EC50 [2]: > 50 µM | metabolic stability in words [3]: reasonably metabolically stable | Cli (intrinsic clearance) [3]: 1.6 mL/min/g

O=C(Cn1nc(-c2cccc(F)c2)c2ccccc21)N1CCCCC1 [Compound 89, 2-(3-(3-Fluorophenyl)-1H-indazol-1-yl)-1-(piperidin-1-yl)ethanone]
EC50 [1]: 5.1 µM | IC50 (TbTryS; TbTryS IC50): 0.14 µM | IC50 (TbTryS; [9]): 0.135 µM | LE (ligand efficiency) (TbTryS): 0.38 | EC50 [4]: 44.5 µM | trypanothione levels [5]: < 10% | EC50 [6]: 6.9 µM | EC50 [2]: > 50 µM | EC50 [7]: 20.4 µM

CC(C)(C)S(=O)(=O)Cc1nc(-c2cccc(Cl)c2)cs1 [Compound 8, 2-((tert-Butylsulfonyl)methyl)-4-(3-chlorophenyl)thiazole]
EC50 [1]: 22 µM | IC50 (TbTryS; TbTryS IC50): 0.4 µM and 0.41 µM | EC50 [2]: > 50 µM | metabolic stability in words [3]: reasonably metabolically stable | Cli (intrinsic clearance) [3]: 0.9 mL/min/g

Cc1ccccc1-c1csc(CS(=O)(=O)C(C)(C)C)n1 [Compound 4, 2-((tert-Butylsulfonyl)methyl)-4-(2-methylphenyl)thiazole]
IC50 (TbTryS; TbTryS IC50): 3.2 µM

NCCCC(N)(C(=O)O)C(F)F (centres unmarked) [eflornithine]
EC50 ([8]; drugs in clinical use): 22 µM

O=C(Cn1nc(C(F)(F)F)c2c1CCCC2)NCc1ccc(Cl)cc1 [Compound 26, N-(4-Chlorobenzyl)-2-(3-(trifluoromethyl)-4,5,6,7-tetrahydro-1H-indazol-1-yl)acetamide]
EC50 [1]: 14 µM | IC50 (TbTryS; TbTryS IC50): 3 µM | EC50 [2]: > 50 µM | metabolic stability in words [3]: reasonably metabolically stable | Cli (intrinsic clearance) [3]: 3.0 mL/min/g

Fc1cccc(-c2nn(Cc3cc(-c4ccccc4)on3)c3ccccc23)c1 [Compound 78, 3-((3-(3-Fluorophenyl)-1H-indazol-1-yl)methyl)-5-phenylisoxazole]
IC50 (TbTryS; TbTryS IC50): > 100 µM

CC(C)(C)S(=O)(=O)Cc1nc(-c2cccc(F)c2)cs1 [Compound 9, 2-(tert-Butylsulfonylmethyl)-4-(3-fluorophenyl)thiazole]
IC50 (TbTryS; TbTryS IC50): 0.4 µM

CC(C)(C)C(=O)Cn1nc(-c2ccsc2)c2ccccc21 [Compound 68, 3,3-Dimethyl-1-(3-(thiophen-3-yl)-1H-indazol-1-yl)butan-2-one]
IC50 (TbTryS; TbTryS IC50): 0.4 µM | LE (ligand efficiency) (TbTryS): 0.42

CC(C)(C)C(=O)Cn1nnc(-c2cccc(F)c2)n1 [Compound 17, 1-(5-(3-Fluorophenyl)-2H-tetrazol-2-yl)-3,3-dimethylbutan-2-one]
IC50 (TbTryS; TbTryS IC50): 1.5 µM

Nc1nc(N)nc(Nc2ccc([As]3SCC(CO)S3)cc2)n1 (centres unmarked) [melarsoprol]
EC50 ([8]; drug in clinical use): 0.008 µM

CC(C)(C)C(=O)Cn1nc(-c2cccc(Cl)c2)c2ccccc21 [Compound 70, 1-(3-(3-Chlorophenyl)-1H-indazol-1-yl)-3,3-dimethylbutan-2-one]
IC50 (TbTryS; TbTryS IC50): 0.35 µM | IC50 (TbTryS; [9]): 0.354 µM | LE (ligand efficiency) (TbTryS): 0.39

Cc1cc(Cn2nc(-c3cccc(F)c3)c3ccccc32)no1 [Compound 79, 3-((3-(3-Fluorophenyl)-1H-indazol-1-yl)methyl)-5-methylisoxazole]
IC50 (TbTryS; TbTryS IC50): > 100 µM

CC1CS(=O)(=O)CCN1/N=C/c1ccc([N+](=O)[O-])o1 (centres unmarked) [nifurtimox]
EC50 ([8]; drugs in clinical use): 2 µM

CC(C)(C)S(=O)(=O)Cc1nc(-c2ccccc2)cs1 [Compound 3, 2-((tert-Butylsulfonyl)methyl)-4-(phenyl)thiazole]
IC50 (TbTryS; TbTryS IC50): 1.2 µM

CN(C)CCCNC(=O)Cn1nc(-c2cccc(F)c2)c2ccccc21 [Compound 84, N-(3-(Dimethylamino)propyl)-2-(3-(3-fluorophenyl)-1H-indazol-1-yl)acetamide]
EC50 [1]: 5.4 µM | in vitro enzyme potency improved over the best HTS hits (TbTryS): > 10 fold | improvement in potency over the analogous piperazines (TbTryS; 83 vs 90, 84 vs 80): 18 fold | LE (ligand efficiency) (TbTryS): 0.39 | EC50 [4]: 23.3 µM | trypanothione levels [5]: < 10% | EC50 [6]: 1.2 µM | EC50 [2]: 20 µM | EC50 [7]: 7.1 µM

CC(C)(C)OC(=O)N1CCN(CCNC(=O)Cn2nc(-c3cccc(F)c3)c3ccccc32)CC1 [Compound 82, tert-Butyl-4-(2-(2-(3-(3-fluorophenyl)-1H-indazol-1-yl)acetamido)ethyl)piperazine-1-carboxylate]
IC50 (TbTryS; TbTryS IC50): 2.9 µM | LE (ligand efficiency) (TbTryS): 0.22

CCC(=O)Cn1nnc(-c2cc(Cl)cc(Cl)c2)n1 [Compound 22, 1-(5-(3,5-Dichlorophenyl)-2H-tetrazol-2-yl)butan-2-one]
IC50 (TbTryS; TbTryS IC50): 2.7 µM

CC(C)(C)C(=O)Cn1nc(-c2cccnc2)c2ccccc21 [Compound 67, 1-(3-(3-Pyridyl)-1H-indazol-1-yl)-3,3-dimethylbutan-2-one]
IC50 (TbTryS; TbTryS IC50): 3 µM | LE (ligand efficiency) (TbTryS): 0.35 | loss in activity (heterocycle at indazole position 3) (TbTryS; indazole series, initial compound 60): 10 fold

CC(C)(C)C(=O)Cn1nc(-c2ccc(Cl)cc2)c2ccccc21 [Compound 61, 1-(3-(4-Chlorophenyl)-1H-indazol-1-yl)-3,3-dimethylbutan-2-one]
IC50 (TbTryS; TbTryS IC50): > 100 µM
